Experimental data from US20170304355A1, “COMPOSITIONS AND METHODS OF USE THEREOF” (priority 2014, published 2017).
Like-named read-outs stand apart in the source and are kept apart here.

Assays:
MRSA strain SA5 = assay: Minimal Biofilm Inhibitory Concentration (MBIC) assay; assay type: cell-based, Staphylococcus aureus
Protocol: (§1) Each isolate was taken from the −80° C. freezer stock and grown for approximately 20 hours in LB Broth at 37° C. shaking water bath. […] The antibiotics and PAAG (22.4% functionalization, 36.9 kDa, 89.74 DDA, 1.63 PDI) were prepared similar to a checkerboard assay (2× concentration to accommodate addition of culture) in MH broth, in a sterile flat-bottomed 96-well plate. For MRSA strain SA5, the PAAG concentrations tested were 0-128 ug/ml. The vancomycin concentrations tested were 0-4 ug/ml. […] The tobramycin concentrations tested were 0-4 ug/ml. Plates were incubated in a 37° C. incubator.
(§2) The fractional inhibitory concentration (FIC) was calculated as; FIC calculation: […]
(§3) and the FIC relationship was defined as; Synergy: FIC≦0.5; Additive: 0.5<FIC≦1.0; or Indifferent: FIC>1.0.

MRSA = assay: Broth microdilution checkerboard assay, PAAG and oxacillin; assay type: cell-based, Staphylococcus aureus; settings: for MIC: Staphylococcus aureus, MRSA
From the text: (§4) Checkerboard and time kill bactericidal studies of mupriocin, methicillin-resistant Staphylococcus aureus strains 2-4C and 2-9A were completed as part of the synergy studies to evaluate potentiation of […] by PAAG (25% functionalized, 43 kDa). Synergistic relationships between PAAG and oxacillin were examined in vitro using the broth microdilution checkerboard assay in 96-well microtiter plates. Serial two-fold dilutions of PAAG and oxacillin were placed in each well with approximately 1×10^5 CFU/ml of S. aureus. Each plate was incubated 20 hours. The MIC was determined as the lowest concentration where no visible bacterial growth was observed. […] Controls for bacterial growth and sterility were included. The FIC for each strain was calculated. The FIC is an interaction coefficient indicating whether the combined inhibitory/bacteristatic effect of drugs is synergistic (FIC of 0.5 or less), additive ([…]), or antagonistic (FIC>4). The FIC is =A+B, where: A=(MIC of X with Y)/(MIC of drug X alone) and B=(MIC of Y with X)/(MIC of drug Y alone). The time-kill assay (vCFU) was performed using the microdilution technique. Approximately 1×10^5 CFU/ml of each bacteria tested was tested against mupriocin alone and in combination. Concentrations of PAAG tested were ½-⅛×MIC. The vCFU was determined after 24 hours treatment using the microtiter technique (8).

[1] = tested on: P. aeruginosa strain SUS116; assay: Minimal Biofilm Inhibitory Concentration (MBIC) assay; assay type: cell-based; settings: for MBIC Tobramycin: alone
Protocol: as §1, §2, §3

[2] = tested on: clinical isolates of P. aeruginosa; assay: Checkerboard assay, PAAG and tobramycin; assay type: cell-based; settings: Pseudomonas aeruginosa
Protocol: Two independent checkerboard assays screened 64 unique combinations of antimicrobial concentrations in duplicate. […] Bacteria were incubated at 37° C. for 20 hours. The MIC was determined as the lowest concentration with no visible bacterial growth observed.

[3] = tested on: P. aeruginosa strain PA01; assay: Checkerboard assay, various PAAG's and tobramycin; assay type: cell-based; settings: Pseudomonas aeruginosa
[4] = tested on: mupirocin-resistant MRSA strains 2-4C and 2-9A; assay: Time-kill assay (vCFU), PAAG and mupirocin; assay type: cell-based, Staphylococcus aureus; settings: 24-hours
From the text: as §4

How did the “MBIC Vancomycin” value (MRSA strain SA5; alone) turn out when `CN[C@H](CC(C)C)C(=O)N[C@H]1C(=O)N[C@@H](CC(N)=O)C(=O)N[C@H]2C(=O)N[C@H]3C(=O)N[C@H](C(=O)N[C@H](C(=O)O)c4cc(O)cc(O)c4-c4cc3ccc4O)[C@H](O)c3ccc(c(Cl)c3)Oc3cc2cc(c3O[C@@H]2O[C@H](CO)[C@@H](O)[C@H](O)[C@H]2O[C@H]2C[C@](C)(N)[C@H](O)[C@H](C)O2)Oc2ccc(cc2Cl)[C@H]1O` [Vancomycin] was run?
The value was 2 µg/mL.

What about the “MBIC Vancomycin (with PAAG)” value (MRSA strain SA5; in combination with PAAG) of the same molecule?
The value was 1 µg/mL.

Which MIC (MRSA; all strains, alone, read-out: MIC oxacillin) does the source give for `Cc1onc(-c2ccccc2)c1C(=O)N[C@@H]1C(=O)N2[C@@H]1SC(C)(C)[C@@H]2C(=O)O` [OXA, oxacillin] here?
Its MIC is ≥ 4 µg/mL.

And the MIC (MRSA; strain 2-1A, alone, read-out: MIC OXA)?
The MIC was 8 µg/mL.

And the MIC (MRSA; strain 2-1A, read-out: MIC OXA with PAAG)?
Its MIC is 1 µg/mL.

And the MIC (MRSA; strain 2-4C, alone, read-out: MIC OXA)?
Its MIC is 16 µg/mL.

And the MIC (MRSA; strain 2-4C, read-out: MIC OXA with PAAG)?
Its MIC is 2 µg/mL.

What about the MIC (MRSA; strain 2-9A, alone, read-out: MIC OXA) of the same molecule?
Its MIC is 8 µg/mL.

What about the MIC (MRSA; strain 2-9A, read-out: MIC OXA with PAAG) of the same molecule?
Its MIC is 0.5 µg/mL.

And the MIC (MRSA; strain MW-2, alone, read-out: MIC OXA)?
The MIC was 4 µg/mL.

And the MIC (MRSA; strain MW-2, read-out: MIC OXA with PAAG)?
Its MIC is 1 µg/mL.

What about the MIC (MRSA; strain SA05, alone, read-out: MIC OXA) of the same molecule?
Its MIC is 4 µg/mL.

What about the MIC (MRSA; strain SA05, read-out: MIC OXA with PAAG) of the same molecule?
The MIC was 1 µg/mL.

And the “MIC of oxacillin after addition of PAAG (susceptible range)” value (MRSA; all strains, PAAG at 2, 8 or 16 μg/ml)?
The value was ≥ 2 µg/mL.

Which “MBIC Aztreonam (with PAAG)” value ([1]; in combination with PAAG) does the source give for `C[C@H]1[C@H](NC(=O)/C(=N\OC(C)(C)C(=O)O)c2csc(N)n2)C(=O)N1S(=O)(=O)O` [Aztreonam] here?
The value was 0.06 µg/mL.

For `NC[C@H]1O[C@H](O[C@H]2[C@H](O)[C@@H](O[C@H]3O[C@H](CO)[C@@H](O)[C@H](N)[C@H]3O)[C@H](N)C[C@@H]2N)[C@H](N)C[C@@H]1O` [Tobramycin], which “MBIC Tobramycin” value ([1]; PAAG and tobramycin table (TABLE 2)) is on record?
Its value is 6.25 µg/mL.

What about the “MBIC Tobramycin” value ([1]; column of the PAAG and aztreonam table (TABLE 1)) of the same molecule?
The value was 2 µg/mL.

And the “MBIC Tobramycin (with PAAG)” value ([1]; in combination with PAAG)?
The value was 2 µg/mL.

What about the MIC ([2]; strain AMT-32-4, alone, read-out: MIC Tobramycin) of the same molecule?
Its MIC is 0.31 µg/mL.

And the MIC ([2]; strain AMT-32-4, read-out: MIC Tobramycin (with PAAG))?
The MIC was 0.13 µg/mL.

And the MIC ([2]; strain MR29, alone, read-out: MIC Tobramycin)?
The MIC was 0.31 µg/mL.

And the MIC ([2]; strain MR29, read-out: MIC Tobramycin (with PAAG))?
Its MIC is 0.25 µg/mL.

And the MIC ([2]; strain MR 51, alone, read-out: MIC Tobramycin)?
Its MIC is 0.31 µg/mL.

What about the MIC ([2]; strain MR 51, read-out: MIC Tobramycin (with PAAG)) of the same molecule?
Its MIC is 0.13 µg/mL.

What about the MIC ([2]; strain PA01, alone, read-out: MIC Tobramycin) of the same molecule?
The MIC was 0.31 µg/mL.

What about the MIC ([2]; strain PA01, read-out: MIC Tobramycin (with PAAG)) of the same molecule?
Its MIC is 0.13 µg/mL.

And the MIC ([2]; strain SUS 116, alone, read-out: MIC Tobramycin)?
The MIC was 1.25 µg/mL.

And the MIC ([2]; strain SUS 116, read-out: MIC Tobramycin (with PAAG))?
The MIC was 0.13 µg/mL.

What about the MIC ([3]; PA01, alone, assay run with PAAG^1, read-out: MIC Tobramycin) of the same molecule?
The MIC was 1 µg/mL.

What about the MIC ([3]; PA01, alone, assay run with PAAG^2, read-out: MIC Tobramycin) of the same molecule?
Its MIC is 0.5 µg/mL.

And the MIC ([3]; PA01, alone, assay run with PAAG^3, read-out: MIC Tobramycin)?
The MIC was 0.5 µg/mL.

What about the MIC ([3]; PA01, with PAAG^1 (27%, 32 kDa), read-out: MIC Tobramycin (with PAAG)) of the same molecule?
Its MIC is 0.031 µg/mL.

And the MIC ([3]; PA01, with PAAG^2 (31%, 54 kDa), read-out: MIC Tobramycin (with PAAG))?
Its MIC is 0.031 µg/mL.

And the MIC ([3]; PA01, with PAAG^3 (25%, 40 kDa), read-out: MIC Tobramycin (with PAAG))?
The MIC was 0.063 µg/mL.

How did the “Log10 reduction (CFU/ml)” value ([4]; strain 2-4C, Mup 8 μg/ml alone) turn out when `C/C(=C\C(=O)OCCCCCCCCC(=O)O)C[C@@H]1OC[C@H](C[C@@H]2O[C@H]2[C@@H](C)[C@H](C)O)[C@@H](O)[C@H]1O` [Mup, mupirocin] was run?
The value was 0 Log10 CFU/ml.

And the “Log10 reduction (CFU/ml)” value ([4]; strain 2-9A, Mup 4 μg/ml alone)?
The value was 0 Log10 CFU/ml.
